Legend:
Type in all cases: cell-based, Human papilloma virus
[1] = tested on: HPV 16; experiment: HPV 16 episome DNA levels in W12E cells by Q-PCR (Taqman); conditions: for IC50: effective (pseudo) IC50, 50% reduction in HPV DNA relative to vehicle (0.1% DMSO), read-out: HPV-16 IC50; for effect on absolute HPV 16 DNA levels: higher doses, in some experiments, FIG. 3
Experimental: Cells maintaining HPV 16 DNA were cultured for 72 hours in the presence of cidofovir, interferon γ or polyamide. Viral DNA was then quantified using real-time PCR and compared to vehicle (DMSO)-treated control cultures.
Compounds were initially tested for effects on HPV 16 episome DNA levels in W12E cells by Q-PCR (Taqman™) over 3 concentration ranges (0.1, 1 and 10 μM). W12E cells are a cervical keratinocyte cell line originally identified by M. Stanley (Cambridge University), and later optimized and provided by P. Lambert (U. of Wisconsin). […] In all cases (initial tests and follow-up IC50 tests), dose testing was performed in triplicate. […] Furthermore, all experiments were conducted in triplicate, multiple times. The data were then combined, pseudo or effective IC50 values calculated, and variance determined to reveal the fit of the data to the model and its reliability.
Keratinocytes that maintain HPV 16 episomes were treated with increasing concentrations of polyamides.

[2] = tested on: HPV18; experiment: HPV18 DNA levels in keratinocytes by real-time PCR; conditions: effective (pseudo) IC50
Experimental: (§1) Human keratinocytes, including those maintaining HPV episomes, are cultured on mitomycin C-treated J2 3T3 cells in media containing three parts Dulbecco's modified Eagle medium (DMEM) and one part F12 media, our modification of published methods (Rheinwald and Green, 1975). Media (E Media) is supplemented with 0.4 μg/mL hydrocortisone, 10 ng/mL cholera toxin, 5 μg/mL insulin, 24 μg/mL adenine, 5 μg/mL transferrin, […] (T3), 10 ng/mL epidermal growth factor (EGF), 1% penicillin-streptomycin, and 5% fetal bovine serum (FBS). All cells are passaged at 70% confluency at a split ratio of 1:5.
(§2) Polyamides for HPV 18 are dissolved at 10 mM in 100% DMSO and diluted with H2O to 1 mM. Polyamides are added to cells in E media at final concentrations of 0.1-10 μM, with final DMSO concentrations of 0.1%. As controls, cells are incubated with normal E media and E media containing the “vehicle” 0.1% DMSO. The HPV DNA levels are then quantified according to previously published procedures (Garner-Hamrick and Fisher, Virology, 301, 334-41, 2002). After incubation, cells are harvested from the plates by either trypsinization or direct lysis with proteinase K digestion buffer (PK buffer: 100 mM NaCl, 10 mM Tris pH 8, 25 mM EDTA, 0.5% SDS, 0.1 mg/mL proteinase K). Trypsinized cells are counted on a hemocytometer and pelleted by centrifugation. Episomal HPV is isolated by the Hirt method (Hirt, 1967) and cell pellets are lysed in 0.6% SDS with 10 mM EDTA. NaCl is next added to a final concentration of 1 M. Following an overnight incubation at 4° C., precipitates containing the chromosomal DNA are spun down and episomal DNA precipitated by the addition of isopropanol. Cells lysed directly in PK buffer are transferred to microfuge tubes and incubated at 50° C. for 2 h. Lysates are then extracted with phenol/chloroform/isoamyl alcohol and spun through a phase lock gel (Eppendorf, Hamburg, Germany). Total DNA is then precipitated with 0.3 M NaOAc and 2.5 vol. ethanol and resuspended in Tris-EDTA (TE) buffer.
Viral DNA levels are next quantified according to variations on our previously published methods (Garner-Hamrick and Fisher, Virology, 301, 334-41, 2002). Quantitative PCR is performed using Real-Time PCR technology on an ABI PRISM 7700 Sequence Detector. All primers and probes were designed using Primer Express 1.0 (ABI). For HPV 18, PCR primer-probe sets were designed within the L1 gene:
(§3) All primers and probes are synthesized and HPLC purified by Applied Biosystems (Foster City, Calif.). The HPV probes are labeled with the 5′ reporter dye FAM (6-carboxy-fluorescein) and the 3′ quencher dye TAMRA (6-carboxytetramethyl-rhodamine). A standard curve is generated using a range of 10^8 to 10 copies/reaction of cloned, genomic HPV31 or HPV18 DNA using the following formula: (1.82×10^15)(μg/μL stock DNA)/(length in base pairs)(2)=copies/μL stock DNA. PCR reactions contain final concentrations of 1× Universal Master Mix (PE Applied Biosystems), 200 nM of each primer, and 250 nM probe (PE Applied Biosystems) in a reaction volume of 25 μL. Each Hirt-isolated DNA sample is analyzed in triplicate reactions for episomal HPV. Copies/reaction are determined from the standard curve, and copies/cell determined according to the following formula: (copies/reaction)×(DNA dilution)/(total # cells)=copies/cell.

[3] = tested on: HPV31; experiment: HPV31 DNA levels in keratinocytes by real-time PCR; conditions: effective (pseudo) IC50
Experimental: as §1, §2
HPV31 primers-probe sets for PCR were also designed within the L1 gene:
as §3

Row | Compound | IC50 [1] [nM] | IC50 [2] [nM] | IC50 [3] [nM] | effect on absolute HPV 16 DNA levels [1]
1 | CN(C)CCCNC(=O)CCNC(=O)c1cc(NC(=O)c2cc(NC(=O)c3cc(NC(=O)CCNC(=O)c4cc(NC(=O)c5cc(NC(=O)c6cc(NC(=O)CCNC(=O)c7cc(NC(=O)c8cc(NC(=O)[C@@H](CCN)NC(=O)c9cc(NC(=O)c%10cc(NC(=O)CCNC(=O)c%11nc(NC(=O)c%12cc(NC(=O)c%13cc(NC(=O)CCNC(=O)c%14cc(NC(=O)c%15cc(NC(=O)c%16nccn%16C)cn%15C)cn%14C)cn%13C)cn%12C)cn%11C)cn%10C)cn9C)cn8C)cn7C)cn6C)cn5C)cn4C)cn3C)cn2C)cn1C [Polyamide 1050, ImPPβPPIβPPγNH2PPβPPPβPPPβDp] | 100 to 1000 | ≥ 1000 | 100 to 1000 | 
2 | CN(CCCN)CCCNC(=O)CCNC(=O)c1cc(NC(=O)c2cc(NC(=O)c3cc(NC(=O)CCNC(=O)c4cc(NC(=O)c5cc(NC(=O)c6cc(NC(=O)CCNC(=O)c7cc(NC(=O)c8cc(NC(=O)[C@H](N)CCNC(=O)c9cc(NC(=O)c%10cc(NC(=O)CCNC(=O)c%11nc(NC(=O)c%12cc(NC(=O)c%13cc(NC(=O)CCNC(=O)c%14cc(NC(=O)c%15cc(NC(=O)c%16nccn%16C)cn%15C)cn%14C)cn%13C)cn%12C)cn%11C)cn%10C)cn9C)cn8C)cn7C)cn6C)cn5C)cn4C)cn3C)cn2C)cn1C [Polyamide 1067, ImPPβPPIβPPγNH2PPβPPPβPPPβTa] | 100 to 1000 | 100 to 1000 | 100 to 1000 | 
3 | CC(=O)N[C@H](CCNC(=O)c1cc(NC(=O)c2cc(NC(=O)CCNC(=O)c3nc(NC(=O)c4cc(NC(=O)c5cc(NC(=O)CCNC(=O)c6cc(NC(=O)c7cc(NC(=O)c8nccn8C)cn7C)cn6C)cn5C)cn4C)cn3C)cn2C)cn1C)C(=O)Nc1cc(C(=O)Nc2cc(C(=O)NCCC(=O)Nc3cc(C(=O)Nc4cc(C(=O)Nc5cc(C(=O)NCCC(=O)Nc6cc(C(=O)Nc7cc(C(=O)Nc8cc(C(=O)NCCC(=O)NCCCN(C)C)n(C)c8)n(C)c7)n(C)c6)n(C)c5)n(C)c4)n(C)c3)n(C)c2)n(C)c1 [Polyamide 1068, ImPPβPPIβPPγNHAcPPβPPPβPPPβDp] | 100 to 1000 | 100 to 1000 | 100 to 1000 | 
4 | CN(CCCN)CCCNC(=O)CCNC(=O)c1cc(NC(=O)c2cc(NC(=O)c3cc(NC(=O)CCNC(=O)c4cc(NC(=O)c5cc(NC(=O)c6cc(NC(=O)CCNC(=O)c7cc(NC(=O)CCNC(=O)CCCNC(=O)c8nc(NC(=O)c9cc(NC(=O)c%10cc(NC(=O)CCNC(=O)c%11cc(NC(=O)c%12nc(NC(=O)c%13cc(NC(=O)CCNC(=O)c%14cc(NC(=O)c%15cc(NC(=O)c%16nccn%16C)cn%15C)cn%14C)cn%13C)cn%12C)cn%11C)cn%10C)cn9C)cn8C)cn7C)cn6C)cn5C)cn4C)cn3C)cn2C)cn1C [Polyamide 1045, ImPPβPIPβPPIγβPβPPPβPPPβTa] | > 1000 | 100 to 1000 | ≥ 1000 | 
5 | CN(C)CCCNC(=O)CCNC(=O)c1cc(NC(=O)c2cc(NC(=O)c3cc(NC(=O)CCNC(=O)c4cc(NC(=O)c5cc(NC(=O)c6cc(NC(=O)CCNC(=O)c7cc(NC(=O)c8cc(NC(=O)c9cc(NC(=O)CCCNC(=O)c%10cc(NC(=O)c%11cc(NC(=O)CCNC(=O)c%12cc(NC(=O)c%13cc(NC(=O)c%14cc(NC(=O)CCNC(=O)c%15cc(NC(=O)c%16cc(NC(=O)c%17cc(NC(=O)c%18nccn%18C)cn%17C)cn%16C)cn%15C)cn%14C)cn%13C)cn%12C)cn%11C)cn%10C)cn9C)cn8C)cn7C)cn6C)cn5C)cn4C)cn3C)cn2C)cn1C [Polyamide 1047, ImPPPβPPPβPPγPPPβPPPβPPPβDp] | > 1000 | ≥ 1000 | ≥ 1000 | 
6 | CN(CCCN)CCCNC(=O)CCNC(=O)c1cc(NC(=O)CCNC(=O)c2cc(NC(=O)c3cc(NC(=O)c4cc(NC(=O)CCNC(=O)c5cc(NC(=O)c6cc(NC(=O)CCCNC(=O)CCNC(=O)c7cc(NC(=O)c8cc(NC(=O)CCNC(=O)c9cc(NC(=O)c%10cc(NC(=O)c%11cc(NC(=O)c%12nccn%12C)cn%11C)cn%10C)cn9C)cn8C)cn7C)cn6C)cn5C)cn4C)cn3C)cn2C)cn1C [Polyamide 1027, ImPPPβPPβγPPβPPPβPβTa] | 100 to 1000 | 100 to 1000 | 100 to 1000 | 
7 | CN(C)CCCNC(=O)CCNC(=O)c1cc(NC(=O)c2cc(NC(=O)c3cc(NC(=O)CCNC(=O)c4cc(NC(=O)c5cc(NC(=O)c6cc(NC(=O)CCNC(=O)c7cc(NC(=O)c8cc(NC(=O)CCCNC(=O)c9cc(NC(=O)c%10cc(NC(=O)CCNC(=O)c%11nc(NC(=O)c%12cc(NC(=O)c%13cc(NC(=O)CCNC(=O)c%14cc(NC(=O)c%15cc(NC(=O)c%16nccn%16C)cn%15C)cn%14C)cn%13C)cn%12C)cn%11C)cn%10C)cn9C)cn8C)cn7C)cn6C)cn5C)cn4C)cn3C)cn2C)cn1C [Polyamide 1040, ImPPβPPIβPPγPPβPPPβPPPβDp] | 100 to 1000 | 100 to 1000 | 100 to 1000 | 
8 | CN(CCCN)CCCNC(=O)CCNC(=O)CCNC(=O)c1cc(NC(=O)c2cc(NC(=O)c3cc(NC(=O)CCNC(=O)c4cc(NC(=O)c5cc(NC(=O)c6cc(NC(=O)CCCNC(=O)c7cc(NC(=O)c8cc(NC(=O)c9cc(NC(=O)CCNC(=O)c%10cc(NC(=O)c%11cc(NC(=O)c%12cc(NC(=O)c%13nccn%13C)cn%12C)cn%11C)cn%10C)cn9C)cn8C)cn7C)cn6C)cn5C)cn4C)cn3C)cn2C)cn1C [Polyamide 1031, ImPPPβPPPγPPPβPPPββTa] | 100 to 1000 | 100 to 1000 | 100 to 1000 | nearly complete elimination of detectable viral DNA
9 | CN(CCCN)CCCNC(=O)c1cc(NC(=O)c2cc(NC(=O)c3cc(NC(=O)c4cc(NC(=O)c5cc(NC(=O)CCNC(=O)c6cc(NC(=O)c7cc(NC(=O)CCCNC(=O)c8cc(NC(=O)c9cc(NC(=O)c%10cc(NC(=O)CCNC(=O)c%11cc(NC(=O)c%12cc(NC(=O)c%13nccn%13C)cn%12C)cn%11C)cn%10C)cn9C)cn8C)cn7C)cn6C)cn5C)cn4C)cn3C)cn2C)cn1C [Polyamide 1069, ImPPβPPPγPPβPPPPPTa] | 100 to 1000 | ≥ 1000 | 100 to 1000 | 
10 | ImPPPβPPβPPPγPPPβPPPβPPPβDp [Polyamide 1004] | 100 to 1000 | ≤ 100 | 100 to 1000 | nearly complete elimination of detectable viral DNA
11 | ImPPβPPIβPPγPPβPPPβPPPPTa [Polyamide 1070] | 100 to 1000 | 100 to 1000 | 100 to 1000 | 
12 | CN(C)CCCNC(=O)CCNC(=O)c1cc(NC(=O)c2cc(NC(=O)c3cc(NC(=O)CCNC(=O)c4cc(NC(=O)c5cc(NC(=O)c6cc(NC(=O)CCNC(=O)c7cc(NC(=O)c8cc(NC(=O)[C@H](N)CCNC(=O)c9cc(NC(=O)c%10cc(NC(=O)CCNC(=O)c%11nc(NC(=O)c%12cc(NC(=O)c%13cc(NC(=O)CCNC(=O)c%14cc(NC(=O)c%15cc(NC(=O)c%16nccn%16C)cn%15C)cn%14C)cn%13C)cn%12C)cn%11C)cn%10C)cn9C)cn8C)cn7C)cn6C)cn5C)cn4C)cn3C)cn2C)cn1C [Polyamide 1066, ImPPβPPIβPPγNH2PPβPPPβPPPβDp] | 100 to 1000 | 100 to 1000 | 100 to 1000 | 
13 | ImPPβPPPγNH2PPβPPPPβDp [Polyamide 1024] | > 1000 | ≥ 1000 | 100 to 1000 | 

— patent US9290551B2, “Compounds for treating papilloma virus infection” (NanoVir, LLC, priority 2012, dated 2016)
